We go through 21 molecules from patent US10329295B2, “Pyrrolotriazine inhibitors of IRAK4 activity” (MERCK SHARP & DOHME CORP., priority 2015, dated 2019).

By IC50 is commonly meant the point on the concentration scale where inhibition reaches its midpoint. A lower IC50 goes with higher potency.

Molecules are shown by their SMILES. Counter-ions that a name gives are not always drawn.

In the assay the target is GST tagged IRAK4 (Homo sapiens (Human), UniProt Q9NWZ3). In words: IRAK4 Kinase Assay (IMAP fluorescence polarization). The assay is classed as biochemical. Conditions: 0.5 nM GST tagged IRAK4, 100 μM ATP, 30 minutes at 25° C. The gist of the method: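 Reactions contained 0.5 nM GST-IRAK4, 100 nM fluorescent peptide substrate and 100 μM ATP in 10 mM Tris-HCl pH 7.2 with 1 mM MgCl2, and were started with ATP. After 30 minutes at 25° C they were stopped with IMAP reagent. Substrate phosphorylation was read as the change in fluorescence polarization.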
Chain of GST tagged IRAK4 (Q9NWZ3 whole entry): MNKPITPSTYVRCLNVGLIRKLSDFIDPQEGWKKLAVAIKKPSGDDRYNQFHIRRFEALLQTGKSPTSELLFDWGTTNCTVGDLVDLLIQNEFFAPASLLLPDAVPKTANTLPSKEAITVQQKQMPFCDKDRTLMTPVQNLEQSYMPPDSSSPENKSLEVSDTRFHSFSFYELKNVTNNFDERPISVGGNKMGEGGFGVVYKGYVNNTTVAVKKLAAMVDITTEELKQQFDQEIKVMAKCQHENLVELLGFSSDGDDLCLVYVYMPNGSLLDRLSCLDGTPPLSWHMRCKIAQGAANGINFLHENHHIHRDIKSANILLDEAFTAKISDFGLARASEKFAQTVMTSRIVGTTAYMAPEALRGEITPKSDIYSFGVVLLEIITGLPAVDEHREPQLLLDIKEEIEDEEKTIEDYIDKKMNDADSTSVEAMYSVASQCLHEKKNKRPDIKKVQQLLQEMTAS
On the technique in general: In fluorescence polarisation assays a small probe gives low polarisation when free and higher when bound to something large.
Molecule `Cn1cc(NC(=O)c2ccc3cnc(N[C@H]4CCCCNC4)nn23)c(C(F)F)n1` (single isomer, unassigned) [Example 91, 2-[(3S)- or (3R)-azepan-3-ylamino]-N-[3-(difluoromethyl)-1-methyl-1H-pyrazol-4-yl]pyrrolo[2,1-f][1,2,4]triazine-7-carboxamide trifluoroacetate] displayed an IC50 of 0.001 µM. The value for `Cn1cc(NC(=O)c2ccc3cnc(N[C@@H]4CCCC[C@@H]4N)nn23)c(C(F)F)n1` [Example 1, 2-{[(1R,2S)-2-Aminocyclohexyl]amino}-N-[3-(difluoromethyl)-1-methyl-1H-pyrazol-4-yl]pyrrolo[2,1-f][1,2,4]triazine-7-carboxamide] was 0.0005 µM.

Turning to `Cn1cc(NC(=O)c2ccc3cnc(N4CC5CCC4CN5)nn23)c(C(F)F)n1` (stereo not drawn) [Example 29, 2-(2,5-diazabicyclo[2.2.2]oct-2-yl)-N-[3-(difluoromethyl)-1-methyl-1H-pyrazol-4-yl]pyrrolo[2,1-f][1,2,4]triazine-7-carboxamide trifluoroacetate], 0.007 µM corresponded to half-maximal inhibition (IC50). With `O=C(Nc1ccccc1Cl)c1ccc2cnc(N3C[C@H]4CC[C@@H]3CN4)nn12` (single isomer, unassigned) [Example 55, N-(2-chlorophenyl)-2-[(1S,4S)- or (1R,4R)-2,5-diazabicyclo[2.2.2]oct-2-yl]pyrrolo[2,1-f][1,2,4]triazine-7-carboxamide trifluoroacetate], inhibition was half-maximal at 0.557 µM (IC50). `Cn1cc(NC(=O)c2ccc3cnc(N[C@@H]4CCCC[C@@H]4N)nn23)c(Br)n1` [Example 66, 2-{[(1R,2S)-2-aminocyclohexyl]amino}-N-(3-bromo-1-methyl-1H-pyrazol-4-yl)pyrrolo[2,1-f][1,2,4]triazine-7-carboxamide trifluoroacetate] yielded a half-inhibitory concentration (IC50) of 0.001 µM. `N[C@@H]1[C@H](Nc2ncc3ccc(C(=O)Nc4ccsc4Cl)n3n2)CCCC1(F)F` [Example 97, 2-{[(1R,2R)-2-amino-3,3-difluorocyclohexyl]amino}-N-(2-chlorothiophen-3-yl)pyrrolo[2,1-f][1,2,4]triazine-7-carboxamide trifluoroacetate] came in with an IC50 of 1.91 µM.

As to `Cn1cc(NC(=O)c2ccc3cnc(N4C[C@@H]5CC[C@H]4CN5)nn23)c(C(F)(F)F)n1` (single isomer, unassigned) [Example 170, 2-[(1S,4S)- or (1R,4R)-2,5-diazabicyclo[2.2.2]oct-2-yl]-N-[1-methyl-3-(trifluoromethyl)-1H-pyrazol-4-yl]pyrrolo[2,1-f][1,2,4]triazine-7-carboxamide], the midpoint of inhibition, the IC50, lay at 0.035 µM. Molecule `Cn1cc(NC(=O)c2ccc3cnc(N4C[C@H]5CC[C@@H]4CN5)nn23)c(C#N)n1` (single isomer, unassigned) [Example 47, N-(3-cyano-1-methyl-1H-pyrazol-4-yl)-2-[(1S,4S)- or (1R,4R)-2,5-diazabicyclo[2.2.2]oct-2-yl]pyrrolo[2,1-f][1,2,4]triazine-7-carboxamide trifluoroacetate] came in with an IC50 of 0.265 µM. `N#Cc1ccccc1NC(=O)c1ccc2cnc(N[C@@H]3CCCNC3)nn12` [Example 52, N-(2-cyanophenyl)-2-[(3R)-piperidin-3-ylamino]pyrrolo[2,1-f][1,2,4]triazine-7-carboxamide trifluoroacetate] displayed a half-inhibitory concentration (IC50) of 0.026 µM. Turning to `N[C@H]1CCCC[C@H]1Nc1ncc2ccc(C(=O)Nc3cscc3Br)n2n1` [Example 14, 2-{[(1R,2S)-2-aminocyclohexyl]amino}-N-(4-bromothiophen-3-yl)pyrrolo[2,1-f][1,2,4]triazine-7-carboxamide trifluoroacetate], the midpoint of inhibition, the IC50, lay at 0.006 µM. Molecule `Cn1cc(NC(=O)c2ccc3cnc(N[C@@H]4CCCC(F)(F)[C@@H]4N)nn23)c(C(F)(F)F)n1` [Example 8, 2-{[(1R,2R)-2-amino-3,3-difluorocyclohexyl]amino}-N-[1-methyl-3-(trifluoromethyl)-1H-pyrazol-4-yl]pyrrolo[2,1-f][1,2,4]triazine-7-carboxamide trifluoroacetate] came in with an IC50 of 0.276 µM. As for `O=C(Nc1ccccc1C(F)(F)F)c1ccc2cnc(N3CCCNCC3)nn12` [Example 28, 2-(1,4-diazepan-1-yl)-N-[2-(trifluoromethyl)phenyl]-pyrrolo[2,1-f][1,2,4]triazine-7-carboxamide trifluoroacetate], the IC50 was determined as 3.98 µM.

For the molecule `O=C(Nc1ccccc1C(F)F)c1ccc2cnc(N3CCCNCC3)nn12` [Example 57, 2-(1,4-diazepan-1-yl)-N-[2-(difluoromethyl)phenyl]-pyrrolo[2,1-f][1,2,4]triazine-7-carboxamide trifluoroacetate], the IC50 turned out to be 6.57 µM.

The molecule `O=C(Nc1cscc1C(F)F)c1ccc2cnc(N3CCCNCC3)nn12` [Example 41, 2-(1,4-diazepan-1-yl)-N-[4-(difluoromethyl)thiophen-3-yl]pyrrolo[2,1-f][1,2,4]triazine-7-carboxamide trifluoroacetate] registered an IC50 of 0.088 µM. In turn, `N[C@@H]1[C@H](Nc2ncc3ccc(C(=O)Nc4ccccc4C(F)(F)F)n3n2)CCCC1(F)F` [Example 137, 2-{[(1R,2R)-2-amino-3,3-difluorocyclohexyl]amino}-N-[2-(trifluoromethyl)phenyl]-pyrrolo[2,1-f][1,2,4]triazine-7-carboxamide trifluoroacetate] displayed an IC50 of 2.19 µM. Turning to `Cn1cc(NC(=O)c2ccc3cnc(N[C@@H]4CCCC(F)(F)[C@@H]4N)nn23)c(Cl)n1` [Example 79, 2-{[(1R,2R)-2-amino-3,3-difluorocyclohexyl]amino}-N-(3-chloro-1-methyl-1H-pyrazol-4-yl)pyrrolo[2,1-f][1,2,4]triazine-7-carboxamide trifluoroacetate], the IC50 is 0.229 µM.

On to `N#Cc1ccccc1NC(=O)c1ccc2cnc(N3CCNCC4(CC4)C3)nn12` [Example 76, N-(2-cyanophenyl)-2-(5,8-diazaspiro[2.6]non-5-yl)pyrrolo[2,1-f][1,2,4]triazine-7-carboxamide trifluoroacetate], for which the IC50 was 0.97 µM. Take `Cn1cc(NC(=O)c2ccc3cnc(N4C[C@@H](N)C[C@H](F)C4)nn23)c(C(F)(F)F)n1` [Example 150, 2-[(3S,5S)-3-amino-5-fluoropiperidin-1-yl]-N-[1-methyl-3-(trifluoromethyl)-1H-pyrazol-4-yl]pyrrolo[2,1-f][1,2,4]triazine-7-carboxamide trifluoroacetate]: the IC50 amounted to 0.01 µM. The molecule `N#Cc1sccc1NC(=O)c1ccc2cnc(N3CCC[C@@H](N)C3)nn12` [Example 141, 2-[(3R)-3-aminopiperidin-1-yl]-N-(2-cyanothiophen-3-yl)pyrrolo[2,1-f][1,2,4]triazine-7-carboxamide trifluoroacetate] had an IC50 of 0.026 µM. With `N#Cc1ccccc1NC(=O)c1ccc2cnc(N[C@H]3CCCCNC3)nn12` (single isomer, unassigned) [Example 60, 2-[(3S)- or (3R)-azepan-3-ylamino]-N-(2-cyanophenyl)pyrrolo[2,1-f][1,2,4]triazine-7-carboxamide trifluoroacetate], the IC50 was 0.008 µM. `Cn1cc(NC(=O)c2ccc3cnc(N4C[C@H](N)C[C@@H](F)C4)nn23)c(C(F)F)n1` [Example 156, 2-[(3R,5R)-3-amino-5-fluoropiperidin-1-yl]-N-[3-(difluoromethyl)-1-methyl-1H-pyrazol-4-yl]pyrrolo[2,1-f][1,2,4]triazine-7-carboxamide trifluoroacetate] yielded an IC50 of 0.0005 µM.
